For 9 molecules, EC50 results are on record in patent publication US10226453B2, “3-(1H-indol-2-yl)-1H-pyrazolo[4,3-B]pyridines and therapeutic uses thereof” (Samumed, LLC, priority 2015, dated 2019).

Each structure is given as a SMILES string.

Holding throughout (assay type): cell-based
The test system of test [1] is Wnt activity (Sp5-Luc reporter, SW480 colon carcinoma cells). Briefly: Wnt activity screening assay: Sp5-Luc reporter gene in SW480 colon carcinoma cells. The following applies: Homo sapiens, overnight incubation, 10-point curve from 10 μM. From the text:
The screening assay for Wnt activity is described as follows. Reporter cell lines can be generated by stably transducing cancer cell lines (e.g., colon cancer) or primary cells (e.g., IEC-6 intestinal cells) with a lentiviral construct that includes a Wnt-responsive promoter driving expression of the firefly luciferase gene.
SW480 colon carcinoma cells were transduced with a lentiviral vector expressing luciferase with a human Sp5 promoter consisting of a sequence of eight TCF/LEF binding sites. SW480 cells stably expressing the Sp5-Luc reporter gene and a hygromycin resistance gene were selected by treatment with 150 μg/mL of hygromycin for 7 days. These stably transduced SW480 cells were expanded in cell culture and used for all further screening activities. Each compound was dissolved in DMSO as a 10 mM stock and used to prepare compound source plates. Serial dilution (1:3, 10-point dose-response curves starting from 10 μM) and compound transfer was performed using the ECHO 550 (Labcyte, Sunnyvale, Calif.) into 384-well white solid bottom assay plates (Greiner Bio-One) with appropriate DMSO backfill for a final DMSO concentration of 0.1%. For Sp5-Luc reporter gene assays, the cells were plated at 4,000 cells/well in 384-well plates with medium containing 1% fetal bovine serum and incubated overnight at 37° C. and 5% CO2. Following incubation, 20 μl of BrightGlo luminescence reagent (Promega) was added to each well of the 384-well assay plates. The plates were placed on an orbital shaker for 2 min and then luminescence was quantified using the Envision (Perkin Elmer) plate reader. Readings were normalized to DMSO only treated cells, and normalized activities were utilized for EC50 calculations using the dose-response log (inhibitor) vs. response-variable slope (four parameters) nonlinear regression feature available in GraphPad Prism 5.0 (or Dotmatics). For EC50 of >10 μM, the percent inhibition at 10 μM is provided.

In another test the test system is SW480 colon cancer cells. In words: Cell viability assay (CellTiter-Blue), SW480 colon cancer cells. The following applies: Homo sapiens, 96 h, four days, CellTiter-Blue. How it is done:
Representative compounds were screened using the following assay procedure to assess the effect on cell viability as described below.
Each compound was dissolved in DMSO as a 10 mM stock and used to prepare compound source plates. Serial dilution (1:3, 8-point dose-response curves from 10 μM to 0.0045 μM) and compound transfer was performed using the ECHO 550 (Labcyte, Sunnyvale, Calif.) into 96-well clear bottom, black-walled plates (Corning—Costar).
Approximately 2×10^3 SW480 colon cancer cells were seeded into each well and allowed to incubate in the presence or absence of compound for four days at 37° C./5% CO2. Eight replicates of DMSO-treated cells served as controls and cells treated with compound were performed in duplicate.
After incubation, 20 μL of CellTiter-Blue (Promega) was added to each well allowed to incubate for approximately 3 hours. This reagent was a buffered solution which contains resazurin, metabolically active cells were able to reduce rezarurin (blue) into resorufin (pink) which was highly fluorescent. This measured fluorescence was used as a readout for cell viability.
After incubation, the plates were read at Ex 560 nm Em 590 nm (Cytation 3, BioTek). Dose-response curves were generated and EC50 concentration values were calculated using non-linear regression curve fit in the GraphPad Prism (San Diego, Calif.) or Dotmatics' Studies Software (Bishops Stortford, UK). For EC50 of >10 μM, the percent inhibition at 10 μM is provided.

The subject of a further test is IL-6 (THP-1 cells). In words: IL-6 inhibition in LPS-stimulated THP-1 human monocyte cells (HTRF). The following applies: LPS 500 ng/mL, 22 hours, IL6 HTRF. Here is the method: Human monocyte cell line (THP-1 cells; Catalog # TIB-202, ATCC, Manassas, Va.) were cultured in Roswell Park Memorial Institute (RPMI) 1640 Medium (Catalog #21870-100, Buffalo, N.Y.) with 1% L-glutamine, 1% HEPES, 1% Sodium Pyruvate, 2% Sodium Bicarbonate supplemented with 100 units/mL penicillin, 50 μg/mL streptomycin, 2-mercaptoethanol (0.05 mM) [basal medium] and 10% fetal bovine serum (Catalog #16140089, Life Technologies, Carlsbad, Calif.) at 37° C. and 5% CO2.
THP-1 cells were cultured in basal media with 1% FBS for 24 hours before the start of the assay. Each compound was dissolved in DMSO as a 10 mM stock and used to prepare compound source plates. Serial dilution (1:3, 10-point dose-response curves starting from 10 μM) and compound transfer was performed using the ECHO 550 (Labcyte, Sunnyvale, Calif.) into 384-well white low volume assay plates (Greiner Bio-One) with appropriate DMSO backfill for a final DMSO concentration of 0.1%. THP-1 cells were plated at 5000 cells/well in the 384-well plates and incubated at 37° C. for 2 h. 500 ng/mL of LPS was added after 2 hours and cells were incubated for another 22 hours at 37° C. Plates were spun in a centrifuge for 1 minute at […] and a mixture of anti-IL6 XL665, and anti-IL6 Cryptate diluted in reconstitution buffer (Cisbio Inc.) was added to each well. Following incubation for 3 hrs at room temperature, Homogeneous Time-Resolved Fluorescence (HTRF) was measured using the Envision (Perkin Elmer) at 665 nm and […]. The ratio of fluorescence at 665 nm to 620 nm was used as a readout for IL6 quantification. All samples were processed in duplicate. Readings were normalized to DMSO treated cells and normalized activities were utilized for EC50 calculations using the dose-response log (inhibitor) vs. response-variable slope (four parameters) nonlinear regression feature available in GraphPad Prism 5.0 (or Dotmatics). For EC50 of >10 μM, the percent inhibition at 10 μM is provided.
For orientation: Time-resolved FRET reads energy transfer from a long-lived donor to a nearby acceptor.

In test [2] the test system is primary human fibroblasts derived from IPF patients (LL29 cells) treated with TGF-β1. In words: Inhibition of the fibrotic process: αSMA staining in TGF-β1 treated primary human fibroblasts from IPF patients (LL29 cells). The following applies: Fibroblast, 96 h, TGF-β1 20 ng/mL, 4 days, % αSMA positive cells. From the text:
Representative compounds were screened using primary human fibroblasts (derived from IPF patients) treated with TGF-β1 to determine their ability to inhibit the fibrotic process.
Primary human fibroblasts derived from IPF patients (LL29 cells) [^1Xiaoqiu Liu, et. al., “Fibrotic Lung Fibroblasts Show Blunted Inhibition by cAMP Due to Deficient cAMP Response Element-Binding Protein Phosphorylation”, Journal of Pharmacology and Experimental Therapeutics (2005), 315(2), 678-687; ^2Watts, K. L., et. al., “RhoA signaling modulates cyclin D1 expression in human lung fibroblasts; implications for idiopathic pulmonary fibrosis”, Respiratory Research (2006), 7(1), 88] were obtained from American Type Culture Collection (ATCC) and expanded in F12 medium supplemented with 15% Fetal Bovine Serum and Penicillin/Streptomycin.
Each compound was dissolved in DMSO as a 10 mM stock and used to prepare compound source plates. Serial dilution (1:2, 11-point dose-response curves from 10 μM to 1.87 nM) and compound transfer was performed using the ECHO 550 (Labcyte, Sunnyvale, Calif.) into 384-well clear bottom assay plates (Greiner Bio-One) with appropriate DMSO backfill for a final DMSO concentration of 0.1%. LL29 cells are plated at 1,500 cells/well in 80 μL/well F12 medium supplemented with 1% Fetal Bovine Serum. One hour after addition of the cells, TGF-β1 (Peprotech; 20 ng/mL) was added to the plates to induce fibrosis (ref. 1 and 2 above). Wells treated with TGF-β1 and containing DMSO were used as controls. Cells were incubated at 37° C. and 5% CO2 for 4 days. Following incubation for 4 days, SYTOX green nucleic acid stain (Life Technologies [Thermo Fisher Scientific]) was added to the wells at a final concentration of 1 μM and incubated at room temperature for 30 min. Cells were then fixed using 4% formaldehyde (Electron Microscopy Sciences), washed 3 times with PBS followed by blocking and permeabilization using 3% Bovine Serum Albumin (BSA; Sigma) and 0.3% Triton X-100 (Sigma) in PBS. Cells were then stained with antibody specific to α-smooth muscle actin (αSMA; Abcam) (ref. 1 and 2 above) in 3% Bovine Serum Albumin (BSA; Sigma) and 0.3% Triton X-100 (Sigma) in PBS, and incubated overnight at 4° C. Cells were then washed 3 times with PBS, followed by incubation with Alexa Flor-647 conjugated secondary antibody (Life Technologies [Thermo Fisher Scientific]) and DAPI at room temperature for 1 hour. Cells were then washed 3 times with PBS and plates were sealed for imaging. αSMA staining was imaged by excitation at 630 nm and emission at 665 nm and quantified using the Compartmental Analysis program on the CellInsight CX5 (Thermo Scientific). Dead or apoptotic cells were excluded from analysis based on positive SYTOX green staining. % of total cells positive for αSMA were counted in each well and normalized to the average of 11 wells treated with TGF-β1 on the same plate using Dotmatics' Studies Software. The normalized averages (fold change over untreated) of 3 replicate wells for each compound concentration were used to create dose-responses curves and EC50 values were calculated using non-linear regression curve fit in the Dotmatics' Studies Software. For EC50 of >10 μM, the percent inhibition at 10 μM is provided.

By EC50 is commonly meant the concentration at which the effect is half-maximal. A high value points to lower potency in that assay. Regarding `CS(=O)(=O)NCc1cc(F)cc(-c2cccc3[nH]c(-c4n[nH]c5ccc(-c6cncc(NC(=O)C7CCCC7)c6)nc45)cc23)c1` [Compound 498, N-(5-(3-(4-(3-Fluoro-5-(methylsulfonamidomethyl)phenyl)-1H-indol-2-yl)-1H-pyrazolo[4,3-b]pyridin-5-yl)pyridin-3-yl)cyclopentanecarboxamide], the half-maximal effective concentration (EC50) in test [1] was found to be 306 nM; in the test with SW480 colon cancer cells, 827 nM; in the test on IL-6 (THP-1 cells) it was 106 nM; in test [2] it was 403 nM.
For `CS(=O)(=O)NCc1cc(F)cc(-c2cccc3[nH]c(-c4n[nH]c5ccc(-c6cncc(CN7CCC(F)(F)C7)c6)nc45)cc23)c1` [Compound 502, N-(3-(2-(5-(5-((3,3-Difluoropyrrolidin-1-yl)methyl)pyridin-3-yl)-1H-pyrazolo[4,3-b]pyridin-3-yl)-1H-indol-4-yl)-5-fluorobenzyl)methanesulfonamide], in that order: 196 nM, 693 nM, 298 nM and 148 nM.
With `CC(C)Nc1cncc(-c2ccc3[nH]nc(-c4cc5ncccc5[nH]4)c3n2)c1` [Compound 516, 5-(3-(1H-Pyrrolo[3,2-b]pyridin-2-yl)-1H-pyrazolo[4,3-b]pyridin-5-yl)-N-isopropylpyridin-3-amine], the EC50 amounted to 61 nM in test [1], 145 nM with SW480 colon cancer cells, 37 nM in the test with IL-6 (THP-1 cells) and 1970 nM in test [2].
For `CCCCC(=O)Nc1cncc(-c2ccc3[nH]nc(-c4cc5ncccc5[nH]4)c3n2)c1` [Compound 523, N-(5-(3-(1H-Pyrrolo[3,2-b]pyridin-2-yl)-1H-pyrazolo[4,3-b]pyridin-5-yl)pyridin-3-yl)pentanamide], in that order: 550 nM, 943 nM, 20 nM and 697 nM.
Take `Cn1cc(-c2ccc3[nH]nc(-c4cc5c(-c6cccc(F)c6)cccc5[nH]4)c3n2)cn1` [Compound 536, 3-(4-(3-Fluorophenyl)-1H-indol-2-yl)-5-(1-methyl-1H-pyrazol-4-yl)-1H-pyrazolo[4,3-b]pyridine]: the EC50 was 338 nM in test [1], 2780 nM in the test on SW480 colon cancer cells, 23 nM with IL-6 (THP-1 cells) and 230 nM in test [2].
In the case of `CN(C)CCOc1cncc(-c2ccc3[nH]nc(-c4cc5c(-c6cccnc6)cccc5[nH]4)c3n2)c1` [Compound 591, N,N-Dimethyl-2-((5-(3-(4-(pyridin-3-yl)-1H-indol-2-yl)-1H-pyrazolo[4,3-b]pyridin-5-yl)pyridin-3-yl)oxy)ethan-1-amine], the EC50 came to 4280 nM in test [1], 1090 nM with SW480 colon cancer cells, 17 nM in the test on IL-6 (THP-1 cells) and 1160 nM in test [2].
Turning to `Cc1ncc(-c2ccc3[nH]nc(-c4cc5ccccc5[nH]4)c3n2)n1C` [Compound 681, 5-(1,2-Dimethyl-1H-imidazol-5-yl)-3-(1H-indol-2-yl)-1H-pyrazolo[4,3-b] pyridine], the EC50 came out at 640 nM in test [1], 728 nM with SW480 colon cancer cells, 17 nM in the test with IL-6 (THP-1 cells) and 279 nM in test [2].
For `CS(=O)(=O)NCc1cc(F)cc(-c2cccc3[nH]c(-c4n[nH]c5ccc(C6CCNCC6)nc45)cc23)c1` [Compound 789, N-(3-Fluoro-5-(2-(5-(piperidin-4-yl)-1H-pyrazolo[4,3-b]pyridin-3-yl)-1H-indol-4-yl)benzyl)methanesulfonamide], in that order: 2950 nM, 5180 nM, 2250 nM and 9630 nM.
For the molecule `CS(=O)(=O)NCc1cc(F)cc(-c2cccc3[nH]c(-c4n[nH]c5ccc(-c6cncc(OCc7ccccc7)c6)nc45)cc23)c1` [Compound 802, N-(3-(2-(5-(5-(Benzyloxy)pyridin-3-yl)-1H-pyrazolo[4,3-b]pyridin-3-yl)-1H-indol-4-yl)-5-fluorobenzyl)methanesulfonamide], the EC50 in test [1] was determined as 433 nM; in the test with SW480 colon cancer cells, 1190 nM; in the test with IL-6 (THP-1 cells) it was 473 nM; in test [2], 276 nM.
